In patent publication US6369110B1, “Substituted guanidine derivatives and process for producing the same” (Sumitomo Pharmaceuticals Company, priority 1998, dated 2002) one finds IC50 data, which are given here for 15 compounds.

By IC50 is commonly meant the concentration that gives 50% inhibition. A lower IC50 goes with inhibition by little substance.

The assay concerns the target T1, Na+/H+ exchange transport system (Rattus norvegicus, UniProt P26431).
T1 construct: a pH change in isolated ventricular myocytes (rat) under an acid load; from tissue; host or cells: isolated rat ventricular myocytes
Put plainly: Inhibitory effect on the Na+/H+ exchange transport system (in vitro), pH change in isolated ventricular myocytes under an acid load. Format: cell-based. On the procedure:
Inhibitory Effect on the Na^+/H^+ Exchange Transport System (In Vitro)
A test was carried out according to the method of Iemori et al. (J. Hypertension, 8, 153(1990)). In detail, inhibitory effect on the Na^+/H^+ exchange transport system was evaluated by using as an indication a pH change in isolated ventricular myocytes (rat) under an acid load.

T1 sequence (P26431 whole entry): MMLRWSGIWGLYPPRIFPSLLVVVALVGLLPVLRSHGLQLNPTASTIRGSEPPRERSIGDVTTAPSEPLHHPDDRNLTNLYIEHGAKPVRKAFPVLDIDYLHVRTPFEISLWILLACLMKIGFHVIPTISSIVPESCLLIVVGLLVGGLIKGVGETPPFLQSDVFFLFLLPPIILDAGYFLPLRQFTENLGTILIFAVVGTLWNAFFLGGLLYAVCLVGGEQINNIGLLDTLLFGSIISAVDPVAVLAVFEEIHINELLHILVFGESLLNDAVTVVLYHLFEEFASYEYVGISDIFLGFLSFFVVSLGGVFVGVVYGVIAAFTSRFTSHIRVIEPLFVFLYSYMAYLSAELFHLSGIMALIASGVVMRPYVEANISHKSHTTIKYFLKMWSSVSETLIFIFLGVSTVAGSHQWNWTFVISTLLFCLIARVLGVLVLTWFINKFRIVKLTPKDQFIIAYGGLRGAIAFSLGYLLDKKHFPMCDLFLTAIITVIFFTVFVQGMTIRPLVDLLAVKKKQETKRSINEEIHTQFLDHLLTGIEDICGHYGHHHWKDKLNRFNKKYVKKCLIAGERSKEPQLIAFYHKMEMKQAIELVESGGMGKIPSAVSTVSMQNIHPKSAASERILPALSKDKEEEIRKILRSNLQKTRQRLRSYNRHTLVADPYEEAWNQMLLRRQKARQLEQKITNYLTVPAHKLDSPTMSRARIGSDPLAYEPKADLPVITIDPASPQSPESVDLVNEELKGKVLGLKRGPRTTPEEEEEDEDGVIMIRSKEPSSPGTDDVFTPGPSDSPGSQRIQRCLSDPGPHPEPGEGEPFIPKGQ

Consider `CC1CC(C(=O)NC(=N)N)=Cc2ccccc2C1` (stereo not drawn) [Example 11, N-(aminoiminomethyl)-6-methyl-6.7-dihydro-5H-benzocycloheptene-8-carboxamide Methanesulfonate], for which the IC50 worked out at 210 nM.
Regarding “N-(aminoiminomethyl )-6,7-dihydro-5H-benzocycloheptene-8-carboxamide Methanesulfonate [Example 3]”, the IC50 is 50 nM.
To “N-(aminoiminomethyl)-1-(4-methylphenylsulfonyl)-2,3-dihydro-1H-benz[b]azepine-4-carboxamide Methanesulfonate [Example 4]” belongs 3300 nM; to “N-(aminoiminomethyl)-2,3-dihydro-1H-benz[b]azepine-4-carboxamide dimethane-sulfonate [Example 5]”, 150 nM.
Consider “N-(aminoiminomethyl)-2,3-dihydro-benz[b]oxepine-4-carboxamide Methanesulfonate [Example 6]”, for which the IC50 was 70 nM.
To “N-(aminoiminomethyl)-2-methylsulfonyl-6,7-dihydro-5H-benzocycloheptene-8-carboxamide Methanesulfonate [Example 13]” belongs above 10000 nM; to “N-(aminoiminomethyl)-2-methylthio-6,7-dihydro-5H-benzocycloheptene-8-carboxamide Methanesulfonate [Example 12]”, 460 nM; to “N-(aminoiminomethyl)-3,4-dihydronaphthalene-2-carboxamide Methanesulfonate [Example 1]”, 300 nM.
To “N-(aminoiminomethyl)-4,9-dimethyl-6,7-dihydro-5H-benzocycloheptene-8-carboxamide Methanesulfonate [Example 9]” belongs 2300 nM; to “N-(aminoiminomethyl)-4-methylsulfonyl-6,7-dihydro-5H-benzocycloheptene-8-carboxamide Methanesulfonate [Example 15]”, 30 nM; to “N-(aminoiminomethyl)-4-methylthio-6,7-dihydro-5H-benzocycloheptene-8-carboxamide Methanesulfonate [Example 14]”, 30 nM.
As for “N-(aminoiminomethyl)-5-methoxy-3,4-dihydronaphthalene-2-carboxamide Methanesulfonate [Example 2]”, the figure is 100 nM; as for “N-(aminoiminomethyl)-5-methyl-6,7-dihydro-5H-benzocycloheptene-8-carboxamide Methanesulfonate [Example 7]”, 50 nM.
Take “N-(aminoiminomethyl)-7-methyl-6,7-dihydro-5H-benzocycloheptene-8-carboxamide Methanesulfonate [Example 10]”: the IC50 stood at 10 nM.
To “N-(aminoiminomethyl)-9-methyl-6,7-dihydro-5H-benzocycloheptene-8-carboxamide Methanesulfonate [Example 8]” belongs 7100 nM.
